Measured values published in US6251897A, “6-phenyltetrahydro-1,3-oxazin-2-one derivative and pharmaceutical composition containing the same” (Nikken Chemicals Co., LTD, priority 1996, dated 2001).

Key:
Type IV PDE = assay: PDE inhibitory activity, type IV isozyme (3H-cAMP hydrolysis); format: biochemical; settings: partially purified from rat neutrophils, 30° C., 30 minutes
Method: Type I, III, IV, and V PDE isozymes were prepared to study the PDE inhibitory activities and selectivities with the compound of the invention [Trends Pharmacol. Sci., 12, 19-27 (1992)]. Type I PDE was purchased from Sigma Corp. Type III, IV, and V PDE isozymes were partially purified from rats platelets (Type III and V) or neutrophils (Type IV). Each enzyme source was homogenized in a buffer (pH 6.5) containing 20 mM bisTris, 2 mM EDTA (ethylenediamine tetraacetate), 0.1 mM PMSF (phenylmethylsulfonyl fluoride), 5 mM 2-mercaptoethanol, 0.001 mM pepstatin, and 0.01 mM leupeptin and was centrifuged at 30,000×G for 30 minutes to obtain a supernatant, which was applied to an ion exchange column (Q-sepharose First Flow, Pharmacia Corp.) and was eluted with 0 to 1M sodium acetate. Partially purified isozymes were identified by observing the effects of conventional inhibitors.
Each PDE isozyme and the test compound dissolved in DMSO (dimethyl sulfoxide) were added to 50 mM Tris-HCl buffer containing 5 mM magnesium chloride. ^3 H-cAMP (for type III and IV PDE) or ^3 H-cGMP (for type I and V PDE) were added as substrates and were reacted at 30° C. for 30 minutes. The reaction was terminated by placing the test tube in boiling water of 100° C. for 5 minutes. The nucleotides formed by PDE were broken down by 5'-nucleotidase to ^3 H-adenosine or ^3 H-guanosine. The unreacted substrate and reaction product were separated through an ion-exchange column (QAE sephadex, Pharmacia Corp.) The eluted ^3 H-nucleoside was measured for its radioactivity by a liquid scintillation counter. The inhibiting activities of the compound of the present invention are shown by the IC50 value (M). Further, the inhibitory activities of the test samples against Type I, III, and V are 1/10 or less than that against type IV.

rat neutrophils = assay: Inhibition of super oxide anion release from rat neutrophils (A23187-stimulated chemiluminescence); format: cell-based, rat (Wister); settings: Neutrophil, stimulated with 0.3 μM calcium ionophore A23187, read-out: Inhibitory action of super oxide anion release from rat neutrophils IC50
Method: The release of super oxide anions was measured so as to study the inhibitory effects of the compound on inflammatory leukocytes, that is, neutrophils.
Blood sample was obtained from Wister rats anesthetized with ether. It was superposed on a blood cell separation solution (Polymorphoprep 1.113, made by Naicomet Co. (phonetic)) and the neutrophils were separated by centrifugation. The neutrophils were resuspended in a Hank's balanced salt solution at a concentration of 0.5×10^4 cell/ml. 0.1 mM of Lusigenin and the test substance dissolved in DMSO were added to 2 ml of the cell-suspension. The chemiluminescence generated by stimulation of 0.3 μM calcium ionophore A23187 was measured by a chemiluminescence reader so as to evaluate the release of super oxide anions.

[1] = tested on: antigen-induced bronchospasm in guinea pig; assay: Inhibitory effect on antigen-induced bronchospasm (Konzett-Roessler, ovalbumin-sensitized); format: in vivo, guinea pig (Hartley male); settings: Cavia porcellus; intravenous, 10 minutes before antigen (0.2 mg/kg OA i.v.); read-out: Action for suppressing antigen-induced bronchospasms ED50
Method: A Hartley male guinea pig was sensitized by intramuscular administration of […] Ovalbumin (OA) on first day and fourth day, and used after 24th day. A trachial canula was introduced in the guinea pig anesthetized with pentobarbital and artificial ventilation was performed 25 to 29 days after the first sensitization. The overflow of the ventilation was measured by the Konzett-Roessler method while 0.2 mg/kg OA were administered intravenously. The test compound was dissolved in polyethylene glycol 400 and intravenously administered 10 minutes before administration of the antigens.

Structure (SMILES)	IC50 (Type IV PDE) [µM]	IC50 (rat neutrophils) [µM]	ED50 [1] [mg/kg]
COc1ccc(C2CCN(C)C(=O)O2)cc1OC (centres unmarked) [Compound No. 8, 6-(3,4-dimethoxyphenyl)-3-methyl-3,4,5,6-tetrahydro-2H-1,3-oxazin-2-one]	19	4.1	
COc1ccc(C2CCN(Cc3cccnc3)C(=O)O2)cc1OC1CCCC1 (centres unmarked) [Compound No. 20, 6-(3-cyclopentyloxy-4-methoxyphenyl)-3-(3-pyridylmethyl)-3,4,5,6-tetrahydro-2H-1,3-oxazin-2-one]	3.5		8.5
COc1ccc(C2(C)CCN(C)C(=O)O2)cc1OC1CCCC1 (centres unmarked) [Compound No. 21, 6-(3-cyclopentyloxy-4-methoxyphenyl)-3,6-dimethyl-3,4,5,6-tetrahydro-2H-1,3-oxazin-2-one]	0.66		0.29
COc1ccc(C2(C)CCNC(=O)O2)cc1OC1Cc2ccccc2C1 (centres unmarked) [Compound No. 40, 6-[3-(2-indanyloxy)-4-methoxyphenyl]-6-methyl-3,4,5,6-tetrahydro-2H-1,3-oxazin-2-one]	0.05		0.47
COc1ccc(C2CCNC(=O)O2)cc1OCCc1ccccc1 (centres unmarked) [Compound No. 23, 6-(4-methoxy-3-phenethyloxyphenyl)-3,4,5,6-tetrahydro-2H-1,3-oxazin-2-one]	1.5		13.6
CCC1(c2ccc(OC)c(OC3CCCC3)c2)CCNC(=O)O1 (centres unmarked) [Compound No. 26, 6-(3-cyclopentyloxy-4-methoxyphenyl)-6-ethyl-3,4,5,6-tetrahydro-2H-1,3-oxazin-2-one]	3.5		2.4
COc1ccc(C2(C)CCNC(=O)O2)cc1OCC1CC1 (centres unmarked) [Compound No. 50, 6-(3-cyclopropylmethyloxy-4-methoxyphenyl)-6-methyl-3,4,5,6-tetrahydro-2H-1,3-oxazin-2-one]	1.1		0.3
COc1ccc(C2(C)CCNC(=O)O2)cc1OCCc1ccccc1 (centres unmarked) [Compound No. 46, 6-(4-methoxy-3-phenethyloxyphenyl)-6-methyl-3,4,5,6-tetrahydro-2H-1,3-oxazin-2-one]	0.49		11.4
CCN1CCC(c2ccc(OC)c(OC3CCCC3)c2)OC1=O (centres unmarked) [Compound No. 28, 6-(3-cyclopentyloxy-4-methoxyphenyl)-3-ethyl-3,4,5,6-tetrahydro-2H-1,3-oxazin-2-one]	1.7		7.4
COc1ccc(C2CCNC(=O)O2)cc1OCC1(c2ccccc2)CC1 (centres unmarked) [Compound No. 56, 6-[4-methoxy-3-[(1-phenylcyclopropyl)methyloxy]phenyl]-3,4,5,6-tetrahydro-2H-1,3-oxazin-2-one]	0.94		1.72
COc1ccc(C2CCNC(=O)O2)cc1OC1Cc2ccccc2C1 (centres unmarked) [Compound No. 24, 6-[3-(2-indanyloxy)-4-methoxyphenyl]-3,4,5,6-tetrahydro-2H-1,3-oxazin-2-one]	0.13		1.6
COc1ccc(C2CCN(Cc3ccccc3)C(=O)O2)cc1OC (centres unmarked) [Compound No. 9, 3-benzyl-6-(3 4-dimethoxyphenyl)-3,4,5,6-tetrahydro-2H-1,3-oxazin-2-one]	22	2.3	
COc1ccc(C2CCN(Cc3ccccn3)C(=O)O2)cc1OC1CCCC1 (centres unmarked) [Compound No. 16]	5.5		2.1
COc1ccc(C2CCN(C)C(=O)O2)cc1OCC1CC1 (centres unmarked) [Compound No. 49, 6-(3-cyclopropylmethyloxy-4-methoxyphenyl)-3-methyl-3,4 5,6-tetrahydro-2H-1,3-oxazin-2-one]	2		3.1
COc1ccc(C2CCN(Cc3ccncc3)C(=O)O2)cc1OC1CCCC1 (centres unmarked) [Compound No. 14, 6-(3-cyclopentyloxy-4-methoxyphenyl)-3-(4-pyridylmethyl)-3,4,5,6-tetrahydro-2H-1,3-oxazin-2-one]	6.1		2.4
COc1ccc(C2(C)CCN(C)C(=O)O2)cc1OC1Cc2ccccc2C1 (centres unmarked) [Compound No. 43, 3,6-dimethyl-6-[3-(2-indanyloxy)-4-methoxyphenyl]-3,4,5,6-tetrahydro-2H-1,3-oxazin-2-one]	0.066		0.29
COc1ccc(C2CCN(C)C(=O)O2)cc1OC1Cc2ccccc2C1 (centres unmarked) [Compound No. 25, 6-[3-(2-indanyloxy)-4-methoxyphenyl]-3-methyl-3,4,5,6-tetrahydro-2H-1,3-oxazin-2-one]	0.19		0.061
COc1ccc(C2(C)CCN(C)C(=O)O2)cc1OCC1CC1 (centres unmarked) [Compound No. 51, 6-(3-cyclopropylmethyloxy-4-methoxyphenyl)-3,6-dimethyl-3,4,5,6-tetrahydro-2H-1,3-oxazin-2-one]	1.9		2.23
COc1ccc(C2(C)CCNC(=O)O2)cc1OC1CCCC1 (centres unmarked) [Compound No. 6, 6-(3-cyclopentyloxy-4-methoxyphenyl)-6-methyl-3,4,5,6-tetrahydro-2H-1,3-oxazin-2-one]	1.1		0.3
COc1ccc(C2CCNC(=O)O2)cc1OCC1CC1 (centres unmarked) [Compound No. 4, 6-(3-cyclopropylmethyloxy-4-methoxyphenyl)-3,4,5,6-tetrahydro-2H-1,3-oxazin-2-one]	3.2		0.23
COc1ccc(C2(c3nccs3)CCNC(=O)O2)cc1OC1CCCC1 (centres unmarked) [Compound No. 31, 6-(3-cyclopentyloxy-4-methoxyphenyl)-6-(2-thiazolyl)-3,4,5,6-tetrahydro-2H-1,3-oxazin-2-one]	4.6		
COc1ccc(C2CCN(C)C(=O)O2)cc1OCCc1ccccc1 (centres unmarked) [Compound No. 44, 6-(4-methoxy-3-phenethyloxyphenyl)-3-methyl-3,4,5,6-tetrahydro-2H-1,3-oxazin-2-one]	1.5		

Second part, led by results:

IC50 (Type IV PDE) [µM]	IC50 (rat neutrophils) [µM]	Structure (SMILES)	ED50 [1] [mg/kg]
2.2		COc1ccc(C2CCNC(=O)O2)cc1OCC(C)C (centres unmarked) [Compound No. 65, 6-[4-methoxy-3-(2-methylpropoxy)phenyl]-3,4,5,6-tetrahydro-2H-1,3-oxazin-2-one]	0.22
3.2		COc1ccc(C2CCNC(=O)O2)cc1OCC1CCC1 (centres unmarked) [Compound No. 61, 6-(3-cyclobutylmethyloxy-4-methoxyphenyl)-3,4,5,6-tetrahydro-2H-1,3-oxazin-2-one]	1.84
1.9		COc1ccc(C2(C)CCN(C)C(=O)O2)cc1OCC(C)C (centres unmarked) [Compound No. 82, 3,6-dimethyl-6-[4-methoxy-3-(2-methylpropoxy)phenyl]-3,4,5,6-tetrahydro-2H-1,3-oxazin-2-one]	0.045
0.31		CCN1CCC(c2ccc(OC)c(OC3Cc4ccccc4C3)c2)OC1=O (centres unmarked) [Compound No. 71, 3-ethyl-6-[3-(2-indanyloxy)-4-methoxyphenyl]-3,4,5,6-tetrahydro-2H-1,3-oxazin-2-one]	2.67
2.9		COc1ccc(C2CCNC(=O)O2)cc1OCC1CCCC1 (centres unmarked) [Compound No. 76, 6-(3-cyclopentylmethyloxy-4-methoxyphenyl)-3,4,5,6-tetrahydro-2H-1,3-oxazin-2-one]	0.27
1.3		COc1ccc(C2(C)CCNC(=O)O2)cc1OCC(C)C (centres unmarked) [Compound No. 81, 6-[4-methoxy-3-(2-methylpropoxy)phenyl]-6-methyl-3,4,5,6-tetrahydro-2H-1,3-oxazin-2-one]	0.028
1.3		COc1ccc(C2CCN(C)C(=O)O2)cc1OCC1(c2ccccc2)CC1 (centres unmarked) [Compound No. 57, 6-[4-methoxy-3-[(1-phenylcyclopropyl)methyloxy]phenyl]-3-methyl-3,4,5,6-tetrahydro-2H-1,3-oxazin-2-one]	15.9
1.1		COc1ccc(C2CCNC(=O)O2)cc1OCCc1cccc2ccccc12 (centres unmarked) [Compound No. 67, 6-[4-methoxy-3-[2-(1-naphthyl)ethoxy]phenyl]-3,4,5,6-tetrahydro-2H-1,3-oxazin-2-one]	
3.8		COc1ccc(C2CCN(C)C(=O)O2)cc1OCC(C)C (centres unmarked) [Compound No. 66, 6-[4-methoxy-3-(2-methylpropoxy)phenyl]-3-methyl-3,4,5,6-tetrahydro-2H-1,3-oxazin-2-one]	0.051
